Patent publication US20220298135A1, “5-HETEROARYL-PYRIDIN-2-AMINE COMPOUNDS AS NEUROPEPTIDE FF RECEPTOR ANTAGONISTS” (Domain Therapeutics, priority 2019, published 2022)

What was measured:
[1] = target: T1, human NPFFR1 (hNPFFR1) receptor (Homo sapiens, UniProt Q9GZQ6); assay: Human NPFFR1 evaluation using BRET biosensors (antagonist IC50); type: cell-based; details: hNPFFR1 transiently over-expressed in HEK-293 T cells; BRET signal; stimulation by EC80 RFRP-3
T1 construct: expressed in transfected cells; host or cells: HEK-293 T cells, transient co-transfection with polyethylenimine
In short: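 HEK-293T cells co-transfected with receptor, GαoB and Gi-effector BRET biosensor pair, assayed 48 h later. Compound 10 min, then EC80 RFRP-3 with 10 min luminescence read; IC50 from 20-concentration variable-slope fit, duplicate, two independent experiments.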

[2] = tested on: morphine-induced hyperalgesia; assay: Morphine-induced hyperalgesia model in the mouse (tail immersion test); type: in vivo; details: 10 mg/kg s.c.; morphine 10 mg/kg s.c. daily during 8 days; male C57/B16N mice; tail immersion test 47° C.
Experimental: This method, which detects opioid-induced hyperalgesia, follows those well-known by one skilled in the art and described in the literature (Elhabazi K et al., J Vis Exp. 2014; (89):e51264). The procedure applied to the compounds of the invention is as follows:
Nociceptive thresholds are assessed using the tail immersion test (TIT). After TIT, mice are treated daily during 8 consecutive days with morphine (10 mg/kg, sub-cutaneous s.c.) +/− tested compounds (10 mg/kg, s.c.) 20 min before morphine injection for example 31 and 32 and twice a day for examples 56 and 143 (20 min before morphine injection, and in the afternoon).
Mice used were male C57/B16N 8 weeks old at the beginning of the experiment. During TIT the tail of the animal is immersed two-thirds in a water bath at 47° C. and the withdrawal latency is recorded in seconds. The cutoff is 25 seconds, to avoid tissue damage. After TIT mice received an injection depending on their group then are replaced to their home cages.
FIGS. 1A and 1B show the mean time of tail withdrawal latency in each group of animals. The anti-hyperalgesia effect of the tested compounds was compared to vehicle-treated group using ANOVA test followed by the Bonferroni's test.

[3] = tested on: hyperalgesia induced by the repeated administration of opiate analgesics; details: administered in vivo in the rat; cited from earlier work

T1 sequence (Q9GZQ6 whole entry): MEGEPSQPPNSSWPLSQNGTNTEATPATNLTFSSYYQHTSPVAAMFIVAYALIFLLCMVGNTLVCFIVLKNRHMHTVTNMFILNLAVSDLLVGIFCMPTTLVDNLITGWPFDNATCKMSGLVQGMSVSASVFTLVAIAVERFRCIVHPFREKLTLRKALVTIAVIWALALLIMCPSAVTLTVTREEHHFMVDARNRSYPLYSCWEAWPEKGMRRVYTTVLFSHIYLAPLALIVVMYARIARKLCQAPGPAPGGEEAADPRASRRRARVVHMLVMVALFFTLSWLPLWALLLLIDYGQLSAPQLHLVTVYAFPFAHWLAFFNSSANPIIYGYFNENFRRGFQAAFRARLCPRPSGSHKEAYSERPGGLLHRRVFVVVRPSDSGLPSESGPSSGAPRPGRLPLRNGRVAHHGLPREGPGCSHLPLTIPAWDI

| IC50 [1] | melting point | Compound | blockade of morphine-induced hyperalgesia (tail withdrawal latency) [2] | antihyperalgesic activity [3] |
| --- | --- | --- | --- | --- |
| 100 to 1000 nM | > 250 °C | CCc1nc(N)ccc1-c1cccc2c1N(C)CC2.Cl [Example 162, 6-ethyl-5-(1-methylindolin-7-yl)pyridin-2-amine] | – | – |
| 100 to 1000 nM | > 250 °C | CCc1nc(N)ccc1-c1cccc2c1NC(=O)C2.Cl [Example 163, 7-(6-amino-2-ethylpyridin-3-yl)indolin-2-one] | – | – |
| 100 to 1000 nM | 175 to 183 °C | CCc1nc(N)ccc1-c1cccc2c1NCC2.Cl [Example 164, 6-ethyl-5-(indolin-7-yl)pyridin-2-amine] | – | – |
| 100 to 1000 nM | 155 to 165 °C | CCc1nc(N)ccc1-c1cccc2c1N(C)CCC2.Cl [Example 165, 6-ethyl-5-(1-methyl-1,2,3,4-tetrahydroquinolin-8-yl)pyridin-2-amine] | – | – |
| < 100 nM | 130 to 135 °C | CCc1nc(N)ccc1-c1cccc2ccc(C(=O)N3CCOCC3)nc12.Cl [Example 166, (8-(6-amino-2-ethylpyridin-3-yl)quinolin-2-yl)(morpholino)methanone] | – | – |
| < 100 nM | 120 to 131 °C | CCc1nc(N)ccc1-c1cccc2ccc(C(=O)N3CCCOCC3)nc12.Cl [Example 167, (8-(6-amino-2-ethylpyridin-3-yl)quinolin-2-yl)(1,4-oxazepan-4-yl)methanone] | – | – |
| < 100 nM | 142 to 148 °C | CCc1nc(N)ccc1-c1cccc2ccc(C(=O)N(CC)C3CCCCC3)nc12.Cl [Example 168, 8-(6-amino-2-ethylpyridin-3-yl)-N-cyclohexyl-N-ethylquinoline-2-carboxamide] | – | – |
| < 100 nM | 140 to 144 °C | CCc1nc(N)ccc1-c1cccc2ccc(C(=O)N3CCCCCC3)nc12.Cl [Example 169, (8-(6-amino-2-ethylpyridin-3-yl)quinolin-2-yl)(azepan-1-yl)methanone] | – | – |
| < 100 nM | 121 to 125 °C | CCc1nc(N)ccc1-c1cccc2ccc(C(=O)N(CC)C(C)C)nc12.Cl [Example 170, 8-(6-amino-2-ethylpyridin-3-yl)-N-ethyl-N-isopropylquinoline-2-carboxamide] | – | – |
| < 100 nM | 150 to 160 °C | CCc1nc(N)ccc1-c1cccc2ccc(C(=O)N3CC4CCC(C3)O4)nc12.Cl [Example 171, (8-(6-amino-2-ethylpyridin-3-yl)quinolin-2-yl)(8-oxa-3-azabicyclo[3.2.1]octan-3-yl)methanone] | – | – |
| 100 to 1000 nM | > 250 °C | CCc1nc(N)ccc1-c1cccc2ccc(C(=O)N3CCC(c4ccccc4)CC3)nc12.Cl [Example 172, (8-(6-amino-2-ethylpyridin-3-yl)quinolin-2-yl)(4-phenylpiperidin-1-yl)methanone] | – | – |
| < 100 nM | 112 to 125 °C | CCc1nc(N)ccc1-c1cccc2ccc(C(=O)NC3CCOCC3)nc12.Cl [Example 173, 8-(6-amino-2-ethylpyridin-3-yl)-N-(tetrahydro-2H-pyran-4-yl)quinoline-2-carboxamide] | – | – |
| < 100 nM | 102 to 114 °C | CCc1nc(N)ccc1-c1cccc2ccc(C(=O)NCc3ccccc3)nc12.Cl [Example 174, 8-(6-amino-2-ethylpyridin-3-yl)-N-benzylquinoline-2-carboxamide] | – | – |
| < 100 nM | 85 to 95 °C | CCc1nc(N)ccc1-c1c(F)ccc2c1OCCC2.Cl [Example 176, 6-ethyl-5-(7-fluorochroman-8-yl)pyridin-2-amine] | – | – |
| < 100 nM | 80 to 90 °C | CCc1nc(N)ccc1-c1c(F)ccc2c1OC(C)(C)CC2.Cl [Example 177, 6-ethyl-5-(7-fluoro-2,2-dimethylchroman-8-yl)pyridin-2-amine] | – | – |
| < 100 nM | 43 to 52 °C | CCc1nc(N)ccc1-c1c(F)ccc2c1OCC=CC2.Cl [Example 178, 6-ethyl-5-(8-fluoro-2,5-dihydrobenzo[b]oxepin-9-yl)pyridin-2-amine] | – | – |
| < 100 nM | 47 to 65 °C | CCc1nc(N)ccc1-c1c(F)ccc2c1OCCCC2.Cl [Example 179, 6-ethyl-5-(8-fluoro-2,3,4,5-tetrahydrobenzo[b]oxepin-9-yl)pyridin-2-amine] | – | – |
| – | – | Na-adamantan-1-yl-L-Arg-L-Phe-NH2 acetate [RF9] | – | antihyperalgesic activity |

| Compound | IC50 [1] | melting point | blockade of morphine-induced hyperalgesia (tail withdrawal latency) [2] | antihyperalgesic activity [3] |
| --- | --- | --- | --- | --- |
| Cl.Nc1ccc(-c2cccc3ccc(=O)[nH]c23)c(N)n1 [Example 56, 8-(2,6-diaminopyridin-3-yl)quinolin-2(1H)-one] | < 100 nM | > 250 °C | significant blockade of morphine-induced hyperalgesia | – |
| CCc1nc(N)ccc1-c1c(F)ccc2cc(F)cnc12.Cl [Example 143, 5-(3,7-difluoroquinolin-8-yl)-6-ethylpyridin-2-amine] | < 100 nM | 245 to 250 °C | significant blockade of morphine-induced hyperalgesia | – |
